# Laboratory results published in US20200385396A1, “Compond for treatment or prevention of obesity or diseases related to obesity, and application thereof” (SHANGHAI INSTITUTES FOR BIOLOGICAL SCIENCES, CHINESE …, priority 2017, published 2020).
# How the values were obtained:
# mice = test: Inhibition of food intake in mice by HLY72/HLY78 derivatives; format: in vivo, mouse; details: for inhibition of food intake in mice / activity compared with HLY72: intraperitoneal, 75 umol/kg; for activity compared with HLY72 / activity relative to Hly72 / effective concentration (EC50) relative to HLY72: food intake; for activity relative to Hly72 / effective concentration (EC50) relative to HLY72: compounds 7.5 umol/kg vs Hly72 75 umol/kg; for effective concentration (EC50) relative to HLY72: 5-6 mice per group
# Experimental: All compounds are injected intraperitoneally with a concentration of 75 umol/kg (20 mg/kg of Hly72 equals 75 umol/kg). One-way ANOVA statistical analysis, *: P<0.05, **: P⋅<0.01, ***: P<0.001.
# All compounds are injected intraperitoneally at a concentration of 75 umol/kg (20 mg/kg of Hly72 equals 75 umol/kg). One-way ANOVA statistics Analysis, *: P<0.05, **: P⋅<0.01, ***: P<0.001.
# Intraperitoneal injection of Hly72 at a concentration of 75 umol/kg (20 mg/kg of Hly72 equals 75 umol/kg), Hgsy-98, Hybj-12a, Hybj-13a are all 7.5 umol/kg. One-way ANOVA statistical analysis, *: P<0.05, **: P⋅<0.01, ***: P<0.001.
# The next question we are very concerned about is whether HLY78 has similar functions to NUCB2 protein in mice. Up to now, the most classic function reported for NUCB2 protein is to reduce the food intake of mice at night. Therefore, the experiment was designed: 20 mg/kg of HLY78 was injected intraperitoneally within two hours before turning off the lights at night, and then the food intake of the mice was measured at different time points (0-3 h, 0-6 h, 0-12 h, 0-24 h). […] During the three days of the adaptive injection period before HLY78 injection, both groups of mice were injected with DMSO. On the day of injection of HLY78 and the two days before the injection of DMSO, the body weight of the two groups of mice is also the same (FIG. 2b). […]
# Experimental methods were the same as in Examples 2 and 4.
# Three compounds of Hgsy-98, Hybj-12a and Hybj-13a were selected for re-experiment (5-6 mice per group).
# Solubility (Table C) = format: physicochemical; details: solvent named in Table C
Structure (SMILES),Solubility (Solubility (Table C)),inhibition of food intake in mice (mice),also measured
CCc1cccc2c1N(C)Cc1cc(OC)ccc1-2 [Hcj12],DMSO,obvious effects,
COc1ccc2c(c1)CN(C)c1c(C)cccc1-2 [Hcj15],DMSO,,
Cc1cccc2c1N(C)Cc1cc(O)ccc1-2 [Hcj16],DMSO,obvious effects,
C#CCOc1ccc2c(c1)CN(C)c1c(C)cccc1-2 [Hcj16d-a],DMSO,,
CCN1Cc2cc(O)ccc2-c2cccc(C)c21 [Hcj36],DMSO,,
CCN1Cc2cc(O)c(OC)cc2-c2cccc(C)c21 [Hcj44-d],DMSO,,
C#CCOc1cc2c(cc1OCC#C)-c1cccc(C)c1N(CC)C2 [Hcj46-d],DMSO,,
COc1cc2c(cc1OC)-c1cccc(C)c1NC2 [Hcj92-a],DMSO,,
Cc1cccc2c1N(C)Cc1cc(OCc3cc4cc(Cl)ccc4s3)ccc1-2 [Hcj194-d],DMSO,obvious effects,
Cc1cccc2c1N(C)Cc1cc(OCc3cc(C)n(C)n3)ccc1-2 [Hcj221d],DMSO,,
C=CC(O)c1cccc2c3ccc(OC)cc3c(=O)n(CC)c12 (centres unmarked) [Hgsy-3],DMSO,,
CCn1c(=O)c2cc(OC)ccc2c2cccc(CO)c21 [Hgsy-31],DMSO,,
CCCCN1Cc2cc(OC)c(OC)cc2-c2cccc(CO)c21 [Hgsy-44],DMSO,,
CCN1Cc2cc(OC)c(OC)cc2-c2cccc(COC(C)=O)c21 [Hgsy-47],DMSO,,
CCCCN1Cc2cc(OC)c(OC)cc2-c2cccc(C(C)O)c21 (centres unmarked) [Hgsy-55],DMSO,,
CCn1c(=O)c2cc(OC)ccc2c2cccc(C(C)O)c21 (centres unmarked) [Hgsy-62],DMSO,,
CCCn1c(=O)c2cc(OC)ccc2c2cccc(C(C)O)c21 (centres unmarked) [Hgsy-64],DMSO,,
CCCN1Cc2cc(OC)ccc2-c2cccc(C(C)O)c21 (centres unmarked) [Hgsy-66],DMSO,,
C/C=C/c1cccc2c1N(C)Cc1cc(OC)ccc1-2 [Hgsy-92-1],DMSO,obvious effects,
C/C=C/c1cccc2c3ccc(OC)cc3c(=O)n(CCCC)c12 [Hgsy-97],DMSO,,
C/C=C/c1cccc2c1N(CCCC)Cc1cc(OC)ccc1-2 [Hgsy-98],DMSO,,activity compared with HLY72 (mice): significantly better; activity relative to Hly72 (mice): about 10 times; effective concentration (EC50) relative to HLY72 (mice): one tenth
C=Cc1cccc2c1N(CCCCCCCCCCCCCCCCCC)Cc1cc3c(cc1-2)OCO3 [Hyb-17a],DMSO,obvious effects,activity compared with HLY72 (mice): significantly better
C=Cc1cccc2c1N(C)Cc1cc(OCC)c(OCC)cc1-2 [Hybj-2a],,obvious effects,
C=Cc1cccc2c1N(C)Cc1cc(OCCCC)c(OCCCC)cc1-2 [Hybj-3a],,obvious effects,
C=Cc1cccc2c1N(CCCCCC)Cc1cc3c(cc1-2)OCO3 [Hybj-9a],DMSO,obvious effects,
C=Cc1cccc2c1N(CCCCCCCCCCCC)Cc1cc3c(cc1-2)OCO3 [Hybj-13a],DMSO,obvious effects,activity compared with HLY72 (mice): significantly better; activity relative to Hly72 (mice): about 10 times; effective concentration (EC50) relative to HLY72 (mice): one tenth
C=Cc1cccc2c1N(CCCCCCCCCC)Cc1cc3c(cc1-2)OCO3 [Hyj-12a],DMSO,obvious effects,activity compared with HLY72 (mice): significantly better; activity relative to Hly72 (mice): 30-40 times; effective concentration (EC50) relative to HLY72 (mice): one tenth

# Now from value to molecule, other results behind:
Solubility (Solubility (Table C)),Structure (SMILES),inhibition of food intake in mice (mice),also measured
DMSO,C=CC(O)c1cccc2c3cc(OC)c(OC)cc3c(=O)n(CC)c12 (centres unmarked) [Hgsy-25],,
DMSO,CCn1c(=O)c2cc(OC)ccc2c2cccc(OC)c21 [Hgsy-32],,
DMSO,COc1cc2c(=O)n(C)c3c(OC)cccc3c2cc1OC [Hgsy-35],obvious effects,
DMSO,CCn1c(=O)c2cc(OC)c(OC)cc2c2cccc(CO)c21 [Hgsy-36],obvious effects,
DMSO,CCCCn1c(=O)c2cc(OC)c(OC)cc2c2cccc(CO)c21 [Hgsy-43],,
DMSO,CCN1Cc2cc(OC)c(OC)cc2-c2cccc(CO)c21 [Hgsy-48],,
DMSO,CCCCn1c(=O)c2cc(OC)c(OC)cc2c2cccc(C=O)c21 [Hgsy-50],obvious effects,activity compared with HLY72 (mice): significantly better
DMSO,CCn1c(=O)c2cc(OC)c(OC)cc2c2cccc(C=O)c21 [Hgsy-51],,
DMSO,CCCCn1c(=O)c2cc(OC)c(OC)cc2c2cccc(C(C)O)c21 (centres unmarked) [Hgsy-53],,
DMSO,COc1cc2c(=O)n(C)c3c(C(C)O)cccc3c2cc1OC (centres unmarked) [Hgsy-56],,
DMSO,COc1cc2c(=O)n(C)c3c(C(C)=O)cccc3c2cc1OC [Hgsy-57],,
DMSO,C=Cc1cccc2c3cc(OC)c(OC)cc3c(=O)n(C)c12 [Hgsy-58],,
DMSO,COc1cc2c(cc1OC)-c1cccc(C(C)O)c1N(C)C2 (centres unmarked) [Hgsy-59],,
DMSO,COc1cc2c(cc1OC)-c1cccc(OC)c1N(C)C2 [Hgsy-60],,
DMSO,C=Cc1cccc2c3ccc(OC)cc3c(=O)n(CC)c12 [Hgsy-67],,
DMSO,C=Cc1cccc2c3ccc(OC)cc3c(=O)n(CCC)c12 [Hgsy-68],,
DMSO,CCn1c(=O)c2cc(OC)c(OC)cc2c2cccc(C3OCCO3)c21 [Hgsy-69],,
DMSO,C/C=C/c1cccc2c3cc(OC)c(OC)cc3c(=O)n(C)c12 [Hgsy-75],,
DMSO,C/C=C/c1cccc2c1N(C)Cc1cc(OC)c(OC)cc1-2 [Hgsy-78],obvious effects,
DMSO,C/C=C/c1cccc2c3cc(OC)c(OC)cc3c(=O)n(CCCC)c12 [Hgsy-80],obvious effects,activity compared with HLY72 (mice): significantly better
DMSO,C/C=C/c1cccc2c1N(CCCC)Cc1cc(OC)c(OC)cc1-2 [Hgsy-86],obvious effects,
DMSO,C/C=C/c1cccc2c3ccc(OC)cc3c(=O)n(C)c12 [Hgsy-89],,
DMSO,C=Cc1cccc2c1N(C)Cc1cc(OC)c(OC)cc1-2 [Hybj-1a],obvious effects,
